Assay [1] has as its system Alternaria solani. Briefly: MIC determination by serial dilution in microtitre plates. It is filed as cell-based. Conditions: lowest concentration without mycelial growth, V8 juice nutrient solution, 20°C, 6-8 days, visual inspection. How it is done:
(§1) Determination of MIC-Values of compounds against various phytopathogenic fungi
(§2) The MIC (Minimum Inhibition Concentration)-values were determined by serial dilution tests using 48-well microtitre plates. The dilution of the test compounds in the nutrient solution and the distribution to the wells were carried out by a TECAN RSP 5000 robotic sample processor.
(§3) For preparation of the nutrient solution, V8 juice (Trade Mark) was neutralised with calcium carbonate and centrifuged. The supernatant was diluted with distilled water (1:5) to the final concentration.
(§4) The fungi (Alternaria solani, Botrytis cinerea, Septoria nodorum) were added into the wells as a droplet of spore suspension. The microtitre plates were then incubated at 20°C for 6-8 days. The MIC-value was determined by visual inspection of the plates. In the case of Alternaria solani and Botrytis cinerea, the lowest concentration in the dilution series without mycelial growth was defined to be the MIC-value. For Septoria nodorum, no MIC-value but only a strong inhibition of growth was regularly observed.

The subject of assay [2] is Botrytis cinerea. The assay is described as above. The assay is classed as cell-based. The settings on record: lowest concentration without mycelial growth, V8 juice nutrient solution, 20°C, 6-8 days, visual inspection. How it is done: as §1, §2, §3, §4
A further assay has as its system Venturia inaequalis. Briefly: Fungicidal activity against Venturia inaequalis on Malus sp. (apple cuttings, protectant spray). It is filed as in vivo. Set-up: key: 0 = no infection; 1 = 1-10% infection; 2 = 11-40% infection; 3 = 41-100% infection. The settings on record: extent of infection score; apple cuttings variety Morgenduft; test compound 400 ppm; infected after 24 hours; assessed after about 14 days. Here is the method: Fungicidal activity against Venturia inaequalis on Malus sp.
Apple cuttings of the variety Morgenduft, which are about 6 weeks old, were treated with a solution of the test compound (400 ppm) in water/acetone/Triton X or water/methanol/Triton X. After 24 hours, the plants were infected with a conidia suspension of Venturia inaequalis (about 50,000 conidia/ml), incubated in a dark climatic chamber at a relative humidity of 100% for 48 hours and then kept at a relative humidity of 95-99% and temperature of 18-20°C during the day and 13°C during the night for about 14 days. The extent of infection was assessed according to the following scheme:- • 0 = no infection • 1 = 1-10% infection • 2 = 11-40% infection • 3 = 41-100% infection The results of these tests are set out in Table II below:-

Assay [3] has as its system Pseudocercosporella herpotrichoides. Briefly: Activity against wheat eyespot in-vitro (PHI), Example 120. The assay is classed as cell-based. The settings on record: 50 ppm compound, 2.5% acetone, 20°C, 12 days, mycelial growth, rating.
For assay [4], the system named is Erysiphe graminis f.sp. hordei. Description: Activity against barley powdery mildew (EG), Example 120. The assay is classed as in vivo. Conditions: barley seedlings, foliar spray 1000 ppm, direct therapeutic; disease control rating.
A further assay deals with Rhizoctonia solani. Description: Activity against Rhizoctonia in-vitro (RSI), Example 120. It is filed as cell-based. Conditions: 50 ppm compound, 2.5% acetone, 20°C, 10 days, mycelial growth, rating.
The test system of assay [5] is Alternaria solani. Briefly: Activity against tomato early blight (AS), Example 120. Conditions: tomato seedlings, foliar spray as described under (a) (1000 ppm), contact prophylactic; disease control rating. It is filed as in vivo.
The next assay deals with Leptosphaeria nodorum. Briefly: Activity against wheat leafspot (LN), Example 120. The assay is classed as in vivo. Conditions: wheat plants, foliar spray 1000 ppm, direct therapeutic; disease control rating.
Another assay deals with Pyricularia oryzae. The assay is classed as in vivo. The settings on record: rice seedlings, foliar spray 1000 ppm, direct therapeutic; disease control rating.
For assay [6], the system named is Botrytis cinerea. Briefly: Direct protectant activity against broad bean grey mould (BCB), Example 120. The assay is classed as in vivo. The settings on record: broad bean plants, foliar spray 1000 ppm, disease control rating.

As a reminder, the MIC is the least concentration at which growth counts as inhibited.

Converted amounts (≈) assume the structure as drawn.

For the compound `CC(C)Nc1c(-c2ccccc2F)c(Cl)nc2ncnn12` [Example 41], the MIC against Alternaria solani [1] worked out at 12.5 µg/mL (≈ 40.9 µM); with Botrytis cinerea [2] it was 25 µg/mL (≈ 81.8 µM). The same compound yielded an Activity with Venturia inaequalis of 0. Further, the “Fungicidal Activity PHI” value in assay [3] is 1 (1 = about 50-80% disease control). Also, in assay [4], the “Fungicidal Activity EG” value is 2 (2 = greater than 80% disease control). The “Fungicidal Activity RSI” value in the assay with Rhizoctonia solani is given as 2 (2 = greater than 80% disease control). For the same compound, the “Fungicidal Activity AS” value with Alternaria solani [5] was 2 (2 = greater than 80% disease control). The “Fungicidal Activity LN” value in the assay with Leptosphaeria nodorum is given as 2 (2 = greater than 80% disease control). Also, the “Fungicidal Activity PO” value with Pyricularia oryzae is reported as 2 (2 = greater than 80% disease control). Moreover, in the assay on Botrytis cinerea [6], the “Fungicidal Activity BCB” value is 2 (2 = greater than 80% disease control).

For the compound `COc1ccc(-c2cnc3ncnn3c2NC2CCCC2)cc1` [Example 3, 6-(4-methoxyphenyl)-7-cyclopentylamino-1,2,4-triazolo[1,5-a]pyrimidine], the Activity in the assay on Venturia inaequalis came out at 2.5.

As for `CNc1nc2ncnn2c(NC2CCCC2)c1-c1ccccc1` [Example 4, 5-methylamino-6-phenyl-7-cyclopentylamino-1,2,4-triazolo[1,5-a]pyrimidine], the Activity with Venturia inaequalis is listed as 2.3.

Regarding `Clc1ccccc1-c1c(I)nc2ncnn2c1NC1CCCC1` [Example 6, 5-iodo-6-(2-chlorophenyl)-7-cyclopentylamino-1,2,4-triazolo[1,5-a]pyrimidine], the minimal inhibitory concentration (MIC) against Alternaria solani [1] was 3.13 µg/mL (≈ 7.12 µM); against Botrytis cinerea [2] it was 6.25 µg/mL (≈ 14.2 µM).

In turn, `Brc1nc2ncnn2c(NC2CCCC2)c1-c1ccccc1` [Example 2, 5-bromo-6-phenyl-7-cyclopentylamino-1,2,4-triazolo[1,5-a]pyrimidine] registered an Activity with Venturia inaequalis of 0.

With `Cc1ccc(-c2c(Cl)nc3ncnn3c2NC2CCCC2)cc1` [Example 1, 5-chloro-6-(4-methylphenyl)-7-cyclo-pentylamino-1,2,4-triazolo[1,5-a]pyrimidine], the MIC in the assay on Alternaria solani [1] turned out to be 1.56 µg/mL (≈ 4.76 µM); against Botrytis cinerea [2], 12.5 µg/mL (≈ 38.1 µM). The Activity with Venturia inaequalis is 1 (1 = 1-10% infection).

These data come from patent EP0782997A2, “Triazolopyrimidine derivatives” (SHELL INTERNATIONALE RESEARCH MAATSCHAPPIJ B.V., priority 1991, dated 1993).
